Measured values as given in patent publication US7135466B2 (Kirin Beer Kabushiki Kaisha, priority 1999, dated 2006).
Read-outs that look alike come from different tables or passages of the source.

Biological target: T1, PDGF-Ra (Homo sapiens, UniProt P16234)
T1 construct: host or cells: G-292 human osteosarcoma cells
Assay: Inhibitory activity against PDGF-Ra phosphorylation by PDGF-AA stimulation using G292
Type: cell-based
Conditions: for IC50: > means inhibition at indicated concentration not more than 50%, < and << not less than 50%, read-out: PDGF (E) IC50; for inhibition at 0.1 µM: G292, read-out: PDGF (E) inhibition (%) at 100 nM
Method: Measurement of Inhibitory Activity Against PDGF-Ra Phosphorylation by PDGF-AA Stimulation Using G292
G-292 human osteosarcoma cells (Dainippon Pharmaceutical Co. Ltd.) were cultured in a DMEM medium (Dainippon Pharmaceutical Co. Ltd.) containing 10% FBS within an incubator containing 5% carbon dioxide until 80% confluent, and the cells were planted at 3×10^4 cells per well in 96-well flat-bottom plates in the same medium containing 0.1% FBS. After cultivation at 37° C. overnight, a solution of a test compound in dimethyl sulfoxide was added to each well, and a reaction was allowed to proceed at 37° C. for one hr.
After the reaction of the test compound, PDGF-AA (Upstate) was added to 50 ng/ml, and the cells were stimulated at 37° C. for 5 min. Thereafter, the cells were solubilized and shaken at room temperature for 20 min.
This solubilized cell solution was transferred to a 96-well plate coated with aniti-phosphotyrosine antibody PY-20, and a reaction was allowed to proceed at 4° C. overnight. Anti-PDGF-Ra (c-20) (Santa Cruz) was added as a primary antibody, and a reaction was allowed to proceed for one hr. GAR (Anti-rabbit Ig, horseradish peroxidase, Amersham) was then added as a secondary antibody, and a reaction was allowed to proceed for one hr. Color development was carried out using a color development kit for peroxidase (Sumitomo Bakelite Co., Ltd.), and the absorbance was measured at 450 nm.

[1] = figure in parentheses in >100( ), at 100 nM
[2] = figure within parentheses in >100( ), at 100 nM

T1 sequence (P16234 24-1089): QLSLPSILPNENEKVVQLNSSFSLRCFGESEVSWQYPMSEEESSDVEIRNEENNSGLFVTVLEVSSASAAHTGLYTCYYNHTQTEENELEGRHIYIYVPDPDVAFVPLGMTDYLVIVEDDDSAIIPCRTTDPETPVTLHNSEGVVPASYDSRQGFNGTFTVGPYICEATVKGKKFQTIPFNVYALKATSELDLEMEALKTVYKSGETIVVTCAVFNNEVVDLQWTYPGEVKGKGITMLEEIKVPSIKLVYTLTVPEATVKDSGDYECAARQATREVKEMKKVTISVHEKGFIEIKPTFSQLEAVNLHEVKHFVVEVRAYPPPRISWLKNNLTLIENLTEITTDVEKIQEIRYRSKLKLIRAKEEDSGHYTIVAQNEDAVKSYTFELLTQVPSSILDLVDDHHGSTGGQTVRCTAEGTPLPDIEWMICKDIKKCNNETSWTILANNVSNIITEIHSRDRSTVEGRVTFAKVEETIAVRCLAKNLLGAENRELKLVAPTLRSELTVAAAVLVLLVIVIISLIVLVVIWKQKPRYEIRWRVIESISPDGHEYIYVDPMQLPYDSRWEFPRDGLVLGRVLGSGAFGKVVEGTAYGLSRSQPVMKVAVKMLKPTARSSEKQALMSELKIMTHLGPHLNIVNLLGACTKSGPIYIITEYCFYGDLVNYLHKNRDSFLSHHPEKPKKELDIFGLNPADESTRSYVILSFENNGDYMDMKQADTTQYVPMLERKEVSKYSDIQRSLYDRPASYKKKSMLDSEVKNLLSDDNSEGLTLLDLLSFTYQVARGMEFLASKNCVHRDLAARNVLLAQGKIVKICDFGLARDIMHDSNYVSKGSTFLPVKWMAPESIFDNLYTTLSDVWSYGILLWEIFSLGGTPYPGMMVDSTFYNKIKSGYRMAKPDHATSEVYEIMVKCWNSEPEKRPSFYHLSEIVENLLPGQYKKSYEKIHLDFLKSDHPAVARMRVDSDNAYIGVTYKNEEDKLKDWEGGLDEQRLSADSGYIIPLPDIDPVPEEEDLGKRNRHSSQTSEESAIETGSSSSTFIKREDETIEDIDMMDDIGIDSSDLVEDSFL

Row | Compound | IC50 [µM] | also measured
1 | COc1cc2nccc(Oc3ccc(NC(=S)NC(=O)CCCCc4ccccc4)cc3)c2cc1OC [Example 727, N-{4-[(6,7-Dimethoxy-4-quinolyl)oxy]phenyl}-N′-(5-phenylpentanoyl)thiourea] | 0.052 | –
2 | COc1cc2nccc(Oc3cc(C)c(NC(=O)OCCOc4cccc(F)c4)cc3C)c2cc1OC [Example 209, 2-(3-Fluorophenoxy)ethyl N-{4-[(6,7-dimethoxy-4-quinolyl)oxy]-2,5-dimethylphenyl}carbamate] | – | IC50 (Pharmacological Test Example 1): > 0.1 µM
3 | 4-(Dimethylamino)butyl N-{4-[(6,7-dimethoxy-4-quinolyl)oxy]phenyl}carbamate [Example 192] | – | IC50 (Pharmacological Test Example 1): 0.056 µM
4 | COc1cc2nccc(Oc3ccc(NC(=O)OC(c4ccccc4)C(C)C)c(C)c3C)c2cc1OC (stereo not shown) [Example 196, 2-Methyl-1-phenylpropyl N-{4-[(6,7-dimethoxy-4-quinolyl)oxy]-2,3-dimethylphenyl}carbamate] | – | IC50 (Pharmacological Test Example 1): 0.049 µM
5 | COc1cc2nccc(Oc3ccc(NC(=S)NC(=O)C(C)Oc4ccccc4)cc3)c2cc1OC (stereo not shown) [Example 745, N-{4-[(6,7-Dimethoxy-4-quinolyl)oxy]phenyl}-N′-(2-phenoxypropanoyl)thiourea] | 0.053 | –
6 | COc1cc2nccc(Oc3cc(C)c(NC(=O)Sc4ccc(Cl)cc4C)cc3C)c2cc1OC [Example 178, 4-Chloro-2-methylphenyl{4-[(6,7-dimethoxy-4-quinolyl)oxy]-2,5-dimethylanilino}methanethioate] | – | IC50 (Pharmacological Test Example 1): > 0.1 µM
7 | N-{4-[(6,7-Dimethoxy-4-quinazolinyl)oxy]phenyl}-N-ethyl-N′-(4-phenylbutanoyl)thiourea [Example 1140] | > 0.1 | PDGF (E) inhibition (%) at 100 nM [1]: 22%
8 | COC(=O)COc1ccc(Oc2ncnc3cc(OC)c(OC)cc23)cc1 [Example 774, Methyl 2-{4-[(6,7-dimethoxy-4-quinazolinyl)oxy]phenoxy}acetate] | > 0.1 | inhibition at 0.1 µM [2]: 17%
9 | CCN(CC)CCNC(=O)Nc1ccc(Oc2ccnc3cc(OC)c(OC)cc23)cc1C [Example 649, N-[2-(Diethylamino)ethyl]-N′-{4-[(6,7-dimethoxy-4-quinolyl)oxy]-2-methylphenyl}urea] | 0.039 | –
10 | COc1cc2ncnc(Oc3ccc(NC(=O)NCCN(C(C)C)C(C)C)c([N+](=O)[O-])c3)c2cc1OC [Example 659, N-[2-(Diisopropylamino)ethyl]-N′-{4-[(6,7-dimethoxy-4-quinazolinyl)oxy]-2-nitrophenyl}urea] | 0.019 | –
11 | COc1cc2nccc(Oc3ccc(NC(=S)NC(=O)c4ccc(C5CCCCC5)cc4)cc3)c2cc1OC [Example 1124, N-(4-Cyclohexylbenzoyl)-N′-{4-[(6,7-dimethoxy-4-quinolyl)oxy]phenyl}thiourea] | > 0.1 | inhibition at 0.1 µM [1]: 22%
12 | COc1cc2ncnc(Oc3ccc(NC(=S)NC(=O)c4ccc(Br)cc4)cc3)c2cc1OC [Example 1168, N-(4-Bromobenzoyl)-N′-{4-[(6,7-dimethoxy-4-quinazolinyl)oxy]phenyl}thiourea] | < 0.01 | –
13 | COc1cc2ncnc(Oc3ccc(NC(=S)NC(=O)c4cc(Cl)cc(Cl)c4)cc3)c2cc1OC [Example 1158, N-(3,5-Dichlorobenzoyl)-N′-{4-[(6,7-dimethoxy-4-quinazolinyl)oxy]phenyl}thiourea] | 0.046 | –
14 | COc1ccc(C(=O)NC(=S)Nc2ccc(Oc3ccnc4cc(OC)c(OC)cc34)cc2Cl)cc1 [Example 1173, N-{2-Chloro-4-[(6,7-dimethoxy-4-quinolyl)oxy]phenyl}-N′-(4-methoxybenzoyl)thiourea] | > 0.1 | –
15 | COc1cc2nccc(Oc3ccc(NC(=O)NN4CCCCC4)c(C)c3C)c2cc1OC [Example 593, N-{4-[(6,7-Dimethoxy-4-quinolyl)oxy]-2,3-dimethylphenyl}-N′-(1-piperidinyl)urea] | 0.051 | –
16 | COc1cc2nccc(Oc3ccc(NC(=S)NC(=O)C(C)(C)Oc4ccc(Cl)cc4)cc3Cl)c2cc1OC [Example 758, N-{3-Chloro-4-[(6,7-dimethoxy-4-quinolyl)oxy]phenyl}-N′-[2-(4-chlorophenoxy)-2-methylpropanoyl]thiourea] | > 0.1 | inhibition at 0.1 µM [2]: 18%
17 | COc1cc2nccc(Oc3ccc(NC(=S)NNC4CCCCC4)c(C)c3C)c2cc1OC [Example 520, N-{4-[(6,7-Dimethoxy-4-quinolyl)oxy]-2,3-dimethylphenyl}-N′-(N-cyclohexylamino)thiourea] | > 0.1 | inhibition at 0.1 µM [2]: 43%

Row | Compound | IC50 [µM] | also measured
18 | CCCCCCOc1ccc(C(=O)NC(=S)Nc2ccc(Oc3ccnc4cc(OC)c(OC)cc34)cc2)cc1 [Example 755, N-{4-[(6,7-Dimethoxy-4-quinolyl)oxy]phenyl}-N′-[4-(hexyloxy)benzoyl]thiourea] | > 0.1 | inhibition at 0.1 µM [2]: 3%
19 | COc1ccc(C(=O)NC(=S)Nc2ccc(Oc3ncnc4cc(OC)c(OC)cc34)cc2)cc1OC [Example 1203, N-(3,4-Dimethoxybenzoyl)-N′-{4-[(6,7-dimethoxy-4-quinazolinyl)oxy]phenyl}thiourea] | < 0.01 | –
20 | COc1ccc(C(=O)NC(=S)Nc2ccc(Oc3ncnc4cc(OC)c(OC)cc34)cc2)c(OC)c1 [Example 1175, N-(2,4-Dimethoxybenzoyl)-N′-{4-[(6,7-dimethoxy-4-quinazolinyl)oxy]phenyl}thiourea] | 0.037 | –
21 | COc1cc2nccc(Oc3cc(C)c(NC(=O)OCCN(C)C)cc3C)c2cc1OC [Example 190, 2-(Dimethylamino)ethyl N-{4-[(6,7-dimethoxy-4-quinolyl)oxy]-2,5-dimethylphenyl}carbamate] | – | IC50 (Pharmacological Test Example 1): > 0.1 µM
22 | COc1cc2ncnc(Oc3ccc(NC(=S)NCCNC(C)=O)cc3)c2cc1OC [Example 519] | > 0.1 | inhibition at 0.1 µM [2]: 22%
23 | COc1cc2ncnc(Oc3ccc(NC(=O)Sc4ccc(Cl)cc4C)cc3)c2cc1OC [Example 179, 4-Chloro-2-methylphenyl{4-[(6,7-dimethoxy-4-quinazolinyl)oxy]anilino}methanethioate] | – | IC50 (Pharmacological Test Example 1): 0.07 µM
24 | COc1cc2nccc(Oc3ccc(NC(=S)NC(=O)c4cc(C)ccc4C)cc3Cl)c2cc1OC [Example 1017, N-{3-Chloro-4-[(6,7-dimethoxy-4-quinolyl)oxy]phenyl}-N′-(2,5-dimethylbenzoyl)thiourea] | 0.048 | –
25 | COc1cc2nccc(Oc3ccc(NC(=S)NN4CCCCC4)c(C)c3C)c2cc1OC [Example 521, N-{4-[(6,7-Dimethoxy-4-quinolyl)oxy]-2,3-dimethylphenyl}-N′-(1-piperidinyl)thiourea] | > 0.1 | –
26 | COc1cc2nccc(Oc3cc(C)c(NC(=O)OC(c4ccccc4)C(C)C)cc3C)c2cc1OC (stereo not shown) [Example 197, 2-Methyl-1-phenylpropyl N-{4-[(6,7-dimethoxy-4-quinolyl)oxy]-2,5-dimethylphenyl}carbamate] | – | IC50 (Pharmacological Test Example 1): 0.093 µM
27 | COc1cc2nccc(Oc3ccc(NC(=S)NC(=O)C(C)Oc4ccccc4)cc3Cl)c2cc1OC (stereo not shown) [Example 746, N-{3-Chloro-4-[(6,7-dimethoxy-4-quinolyl)oxy]phenyl}-N′-(2-phenoxypropanoyl)thiourea] | > 0.1 | inhibition at 0.1 µM [2]: 31%
28 | COc1ccc(CCC(=O)NC(=S)Nc2ccc(Oc3ccnc4cc(OC)c(OC)cc34)c(Cl)c2)cc1OC [Example 712, N-{3-Chloro-4-[(6,7-dimethoxy-4-quinolyl)oxy]phenyl}-N′-[3-(3,4-dimethoxyphenyl)propanoyl]thiourea] | 0.083 | –
29 | COc1cc2ncnc(Oc3ccc(NC(=O)Oc4ccccc4C#N)cc3)c2cc1OC [Example 456, 2-Cyanophenyl N-{4-[(6,7-dimethoxy-4-quinazolinyl)oxy]phenyl}carbamate] | > 0.1 | inhibition at 0.1 µM [2]: 21%
30 | COc1cc2nccc(Oc3ccc(NC(=O)OCCCCN(C)C)c(C)c3C)c2cc1OC [Example 193, 4-(Dimethylamino)butyl N-{4-[(6,7-dimethoxy-4-quinolyl)oxy]-2,3-dimethylphenyl}carbamate] | – | IC50 (Pharmacological Test Example 1): 0.057 µM
31 | COc1cc2nccc(Oc3ccc(OCCCOc4c(C)cccc4C)cc3)c2cc1OC [Example 799, 4-{4-[3-(2,6-Dimethylphenoxy)propoxy]phenoxy}-6,7-dimethoxyquinoline] | 0.014 | –
32 | CCCC(CCC)OC(=O)N(CC)c1ccc(Oc2ncnc3cc(OC)c(OC)cc23)cc1Cl [Example 488, 1-Propylbutyl N-{2-chloro-4-[(6,7-dimethoxy-4-quinazolinyl)oxy]phenyl}-N-ethylcarbamate] | 0.098 | –
33 | COc1cc2nccc(Oc3ccc(NC(=S)NCCN4CCCCC4)c(C)c3C)c2cc1OC [Example 512, N-{4-[(6,7-Dimethoxy-4-quinolyl)oxy]-2,3-dimethylphenyl}-N′-(2-piperidinylethyl)thiourea] | 0.029 | –
34 | COc1cc2nccc(Oc3ccc(NC(=S)NC(=O)CCc4cccc(C)c4)cc3Cl)c2cc1OC [Example 1184, N-{3-Chloro-4-[(6,7-dimethoxy-4quinolyl)oxy]phenyl}-N′-[3-(3-methylphenyl)propanoyl]thiourea] | 0.055 | –
